Source: patent US20060258735A1, “1,3-Bis-(substituted-phenyl)-2-propen-1-ones and their use to treat VCAM-1 mediated disorders” (priority 2000, published 2006)

Key:
eosinophil recruitment = assay: Mouse peritonitis model (ovalbumin, eosinophil recruitment); assay type: in vivo; conditions: 50 mg/kg/dose subcutaneous at -24, -2, +2 and +6 hrs around ovalbumin challenge; Balb/C mice; 48 hrs post-challenge; FIG. 2
Procedure: (§1) Balb/C mice (n=10) were sensitized to ovalbumin on days 0 and 7 with a subcutaneous injection of ovalbumin absorbed in aluminum hydroxide. They were then challenged with an intraperitoneal injection of ovalbumin and sacrificed 48 hrs post-challenge. Peritoneal fluid was then collected and spun down onto slides. Slides were stained with DiffQuik and a differential performed. The test compound was administered by subcutaneously injection −24, −2, +2 and +6 hrs around the time of ovalbumin challenge. This is a model of allergic inflammation as eosinophils are the major leukocyte recruited into the peritoneum.
as §1, with “compound wase” for “compound was”

paw edema = assay: Paw edema model (delayed type hypersensitivity, metBSA); assay type: in vivo; conditions: 50 mg/kg/dose intraperitoneal at -24, -2 and +6 hrs around metBSA challenge; Balb/C mice; 24 hours after challenge; FIG. 3
Procedure: Balb/C mice (n=5) were sensitized intradermally on day 0 with methylated BSA (metBSA). They were then challenged with metBSA on day 7 in the right hind paw. The animals were sacrificed 24 hours later and the left and right hind paws weighed. The left hindpaw weight is subtracted from the right hind paw to give the paw weight increase. The test compound was administered by intraperitoneal injection −24, −2 and +6 hrs around the time of metBSA challenge.

COc1cc(OC)c(-c2cc3ccccc3s2)cc1/C=C/C(=O)c1cc(OC)c(OC)c(OC)c1 [3-[5-(benzo[b]thien-2-yl)-2,4-dimethoxyphenyl]-1-(3,4,5-trimethoxyphenyl)-2-propen-1-one]
inhibition of eosinophil recruitment (percent eosinophils in the peritoneal fluid) (eosinophil recruitment): inhibition of eosinophil recruitment | inhibition of paw edema (paw weight increase) (paw edema): inhibition of paw edema
